Marks after values point to notes of the source that are not given here.
Columns and labels:
[1] = tested on: rats with intracerebral hemorrhage; assay: Lethality of rats with intracerebral hemorrhage of average severity; type: in vivo
Procedure: The chosen model allows to reproduce clinical pattern of […] and is adequate for clinical study of potential neuroprotective agents.
As comparators the following drugs were used: mexydol (“Mexydol” UC Pharmasoft, Russia), 100 mg/kg; citicoline (“Somazina” Ferrer International, SA, Spain), 250 mg/kg; aktovegin (“Aktovegin”, Nycomed, Austria), 16 mg/kg pyracetam (“Pyracetam” Darnitsa, Ukraine), 400 mg/kg. According to the latest clinical guidelines regarding the treatment of patients with CVA approved by the Ministry of Health of Ukraine (Order No. 602 dated 3 Aug. 2012), all these drugs are allowed to be included into schemes for intensive patients therapy with CVA as neuroprotective agents. They were used at recommended doses for preclinical studies (McGrow C. P. Experimental Cerebral Infarction Effects of Pentobarbital in Mongolian Gerbils/C. P. McGrow//Arch. Neurol.-1977.-Vol. 34, No. 6.-P. 334-336). Experimental therapy of acute cerebral ischemia with SI-86 compound and comparator started 1 hour after IUD once a day for 21 days. […] Reference drugs were injected intraperitoneally (ip). Rats of control pathology group were injected by autoblood and as therapy 0.9% NaCI solution was administered calculated for 2 ml/kg iv.
Pseudo-operated rats were exposed to all interventions (anesthesia, craniotomy) excluding autoblood administration that leveled traumatic impact of experimental conditions.
Evaluation of the ability of animals to learn and memorize of aversive stimulus was examined in the test of conditioned response of passive avoidance (CRPA). The technique is based on innate rat instinct to limited shadowy space. The study in rats was conducted in two-compartment unit consisted of two sections—light and dark. An animal was arranged into light compartment, fixing latency time for entering into the dark compartment, wherein rat received current irritation and ran in the light compartment. CRPA retention was tested every other day under latency time change of rat entering into the dark compartment. Also the number of animals was noted not fully entered the dark chamber. Cerebroprotective efficiency criteria of studied compounds were also animal death term (days) and their mortality rate (in %).
Quantitative data were processed using statistical StatPlus 2009 processing. The statistical significance of differences was assessed by Fisher's angular transformation (lethality outcome), also parametric t Student criterion were used in case of normal distribution of variation series, nonparametric W White criterion—in its absence.

[2] = tested on: 11β-corticosterone; assay: 11β-corticosterone level in venous blood of rats with bilateral carotid occlusion (ELISA); type: in vivo, Wistar rats; details: for dynamics in percents in relation to control pathology group / dynamics in percents in relation to the group of pseudo-operated animals / 11β-corticosterone level in venous blood: BCO
Procedure: The neuroprotective effect of 3,2′-spiro-pyrrolo-2-oxindole derivative (SI-86 compound) was studied in Wistar rats on a model of cerebrovascular accident (CVA) of ischemic type in archencephalic pool forming bilateral carotid occlusion (BCO) by carotid artery ligation. The ligations for common carotid arteries was imposed under propofol anesthesia at a dose of 60 mg/kg intraperitoneally (ip), using surgical access to the front of the neck cutting through its white line. The chosen model allows to reproduce the clinical pattern of ischemic stroke and is adequate for clinical study of potential neuroprotective substances (Drug discovery and Evaluation: pharmacological assays/H. Gerhard Vogel (ed.).-2nd ed. 1453p.).
The derivative of 3,2′-spiro-pyrrolo-2-oxindole was investigated in conventionally effective dose of 10 mg/kg […] (iv)—dose which is provided maximum antihypoxic activity of SI-86 compound by the results of our previous study. The reference drugs were injected intraperitoneally (ip). BCO was applied to the rats of control pathology and 0.9% NaCI solution was administered as therapy calculated for 2 ml/kg ip.
Pseudo-operated rats were exposed to all interventions (anesthesia, skin incision, dissection of vessels) except arteries ligation that leveled traumatic impact of experimental conditions.
To determine a corticosterone level (species-specific cortisol analogue in rats, which is also a substrate for 11β-HSD1) in the corresponding period (4 th and 21 st CVA day) in rat by sagittal sinus puncture, blood was sampled (0.2-0.4 ml). The cortisol level was measured by ELISA using a CORTICOSTERONEE KIT set (Germany) on the instrument of the company “Hipson” (Czech Republic).

[3] = tested on: rat heart bioelectrical activity; assay: Acute asphyxia, duration of heart bioelectrical activity; type: in vivo, rats
Procedure: Acute asphyxia was modeled in rats anesthetized with propofol (60 mg/kg) intraperitoneally (ip) by complete clamping the trachea at electrocardiogram (EGC) registration. The antihypoxic effect was evaluated by duration of heart bioelectric activity (HBA). This model allows to estimate the heart sensitivity to hypoxia. An isoelectric ECG line for 1 minute considered as HBA termination, the pint of HBA termination corresponded to the last QRS complex on the ECG. The calculation of […] activity was performed by the above formula considering a point of last QRS complex registration as a lifetime.
The preliminary screening of test substances was performed on ANHHH model. All derivatives were administered in the same dose of 10 mg/kg […] (iv) 1 hour prior to pathological state modeling. […] The effectiveness of a leader compound was evaluated at doses 5; 10 and 15 mg/kg iv. Mexydol was chosen as a reference drug having antihypoxic action in combination with antioxidant and membrane protective activity, which is successfully used in patients with CVA and IM. Mexydol was administered intraperitoneally (ip) at a dose of 100 mg/kg according to similar scheme.

[4] = 12 h, SI-86 10 mg/kg iv, mexydol 100, citocoline 250, actovegin 16, pyracetam 400 mg/kg

CSCC[C@@H]1N[C@@]2(C(=O)Nc3ccccc32)[C@@H]2C(=O)N(c3ccc(C)cc3)C(=O)[C@H]12 [SI-86, 5′-(4-Methylphenyl)-3′-[2-(methylthio)ethyl]-3a′,6a′-dihydro-2′H-spiro[indole-3,1′-pyrrolo[3,4-c]pyrrol]-2,4′,6′(1H,3′H,5′H)-trione]
Lethality, % [1, 4]: 0/0% | Lethality, abs. [1, 4]: 0/0% | Lethality, abs. ([1]; 24 h, same doses): 0/0%*^# | cerebroprotective protection ([1]; 24 h observation, SI-86 10, mexydol 100, citicoline 250 mg/kg): 100% | Lethality, abs. ([1]; 48 h, same doses): 0/0%*^#&•$ | Lethality, % ([1]; 72 h, same doses): 5.9% | Lethality, abs. ([1]; 72 h, same doses): 2 | Lethality, % ([1]; 96 h, same doses): 11.8% | Lethality, abs. ([1]; 96 h, same doses): 4 | dynamics in percents in relation to control pathology group ([2]; day 4): [−60.2%] | dynamics in percents in relation to the group of pseudo-operated animals ([2]; day 4): (+54.8%) | 11β-corticosterone level in venous blood ([2]; day 4, SI-86 10 mg/kg iv, citocoline 250 mg/kg ip): 186.12 ± 1.43°*^# ng/ml | dynamics in percents in relation to control pathology group ([2]; day 21): [−57.1%] | dynamics in percents in relation to the group of pseudo-operated animals ([2]; day 21): (+55.2%) | 11β-corticosterone level in venous blood ([2]; day 21, same doses): 144.67 ± 3.43°*^#• ng/ml | ability to reduce corticosterone content, better than citocoline ([2]; CVA acute period): 1.46 times | corticosterone concentration in sagittal sinus blood decreased in relation to the control pathology group ([2]; after 96 hours): 60.2% | corticosterone concentration in sagittal sinus blood decreased in relation to the control pathology group ([2]; after 21 days): 57.1% | ability to reduce corticosterone content, better than citocoline ([2]; recovery period): 1.62 times | Antihypoxic activity ([3]; 5 mg/kg iv): +12.1% | Duration of heart bioelectrical activity ([3]; 5 mg/kg iv): 13.0 ± 1.5 min | Antihypoxic activity ([3]; 10 mg/kg iv): +5.8% | Duration of heart bioelectrical activity ([3]; 10 mg/kg iv): 12.3 ± 1.4 min | Antihypoxic activity ([3]; 15 mg/kg iv): −2.8% | Duration of heart bioelectrical activity ([3]; 15 mg/kg iv): 11.3 ± 1.0 min

From patent publication US20160297828A1, “SPIROCYCLIC COMPOUNDS CONTAINING SPIRO[INDOLYL-3,1'-PYRROLO[3,4-C]PYRROLE] CORE AND SULPHUR-CONTAINING AMINO ACID RESIDUES” (priority 2013, published 2016)
